Laboratory results reported in patent publication US20210340142A1, “SALT FORM AND CRYSTAL FORM OF NOVEL AZATRICYCLIC COMPOUND AND USE THEREOF” (BETTA PHARMACEUTICALS CO., LTD, priority 2018, published 2021).

How the values were obtained:
FGFR4 = FGFR4 (Homo sapiens, UniProt P22455); assay: Kinase assay (mobility shift assay)
Source text: (§1) Prepare compounds: dilute test compounds to specific concentration using 100% DMSO

[1] = Pharmacokinetic study of compound of Formula I and salt forms (Example 23); assay type: in vivo; conditions: male, rat, plasma, SD rats, oral, 10 mg/kg, prepared in purified water 0.5 mg/mL
Source text: Drugs and reagents: 6-(2-chloro-3,5-dimethoxyphenyl)-N-(4-(4-morpholinopiperidin-1-yl)phenyl)-[1,2,4]triazolo[4′,3′:1,6]pyrido[2,3-d]pyrimidin-2-amine (compound of Formula I) and salt forms thereof which include malate salt crystalline form, tartrate salt crystalline form, phosphate salt crystalline form, methanesulfonate salt crystalline form, hydrochloride salt crystalline form, fumarate salt crystalline form, citrate salt crystalline form, besylate salt crystalline form used in this study were ground to fine particles.
Experimental animals: SD rats were randomly divided into the compound of Formula I group and each salt crystalline form of the compound of Formula I group, each group including three male rats.
Pharmaceutical preparation: each compound was prepared in purified water, wherein, the mesylate salt crystalline form, hydrochloride salt crystalline form and besylate salt crystalline form were prepared into a clear solution, the malate salt crystalline form, tartrate salt crystalline form, phosphate salt crystalline form, fumarate salt crystalline form, citrate salt crystalline form and sulfate salt crystalline form were prepared into a suspension, and final concentration of each compound was 0.5 mg/mL. […]
The samples were analyzed by AB4000 API LC/MS combined with HPLC. […]

NCI-H1581 cells = assay: cells; conditions: Homo sapiens, NCI-H1581, read-out: IC50 on NCI-H1581 cells
Experimental: 100 μl of CellTiter-Glo reagent was added to the assay plate and incubated for 10 min at room temperature to stabilize the luminescence signal.

[2] = Hygroscopicity assessment by dynamic vapor sorption (DVS); assay type: physicochemical; conditions: weight change between 0% RH to 80% RH, 25° C.
Experimental: The hygroscopicity of the sample (the sample is a variety of crystal forms shown in Table 26) was tested using dynamic vapor sorption (DVS) instrument, and the water uptake of the sample at 0% RH (relative humidity) to 80% RH was tested.

SNU-16 cells = assay: Cell proliferation assay (CellTiter Glo); assay type: cell-based; conditions: Homo sapiens, growth inhibition in vitro, 96 hrs
Experimental: Test method: the cells were added appropriate volume of whole medium to suspend. 100 μl of the cell suspension was added to a 96-well plate and placed in a CO2 incubator overnight. Tested compounds were dissolved in DMSO and subjected to a 3-fold gradient dilution for a total of 10 concentrations. Tested compound and DMSO reference materials were transferred to the corresponding wells containing 100 μl of medium respectively. Incubated in 5% CO2 at 37° C. for 96 hrs. 100 μl of CellTiter-Glo reagent was added to the assay plate and incubated for 10 min at room temperature to stabilize the luminescence signal. The IC50 value was calculated by recording the RLU (relative luminescence unit) using VICTOR TM X5 instrument.

FGFR3 = FGFR3 (Homo sapiens, UniProt P22607); assay: Kinase assay (mobility shift assay)
Sequence of FGFR3 (P22607 23-806, species assumed): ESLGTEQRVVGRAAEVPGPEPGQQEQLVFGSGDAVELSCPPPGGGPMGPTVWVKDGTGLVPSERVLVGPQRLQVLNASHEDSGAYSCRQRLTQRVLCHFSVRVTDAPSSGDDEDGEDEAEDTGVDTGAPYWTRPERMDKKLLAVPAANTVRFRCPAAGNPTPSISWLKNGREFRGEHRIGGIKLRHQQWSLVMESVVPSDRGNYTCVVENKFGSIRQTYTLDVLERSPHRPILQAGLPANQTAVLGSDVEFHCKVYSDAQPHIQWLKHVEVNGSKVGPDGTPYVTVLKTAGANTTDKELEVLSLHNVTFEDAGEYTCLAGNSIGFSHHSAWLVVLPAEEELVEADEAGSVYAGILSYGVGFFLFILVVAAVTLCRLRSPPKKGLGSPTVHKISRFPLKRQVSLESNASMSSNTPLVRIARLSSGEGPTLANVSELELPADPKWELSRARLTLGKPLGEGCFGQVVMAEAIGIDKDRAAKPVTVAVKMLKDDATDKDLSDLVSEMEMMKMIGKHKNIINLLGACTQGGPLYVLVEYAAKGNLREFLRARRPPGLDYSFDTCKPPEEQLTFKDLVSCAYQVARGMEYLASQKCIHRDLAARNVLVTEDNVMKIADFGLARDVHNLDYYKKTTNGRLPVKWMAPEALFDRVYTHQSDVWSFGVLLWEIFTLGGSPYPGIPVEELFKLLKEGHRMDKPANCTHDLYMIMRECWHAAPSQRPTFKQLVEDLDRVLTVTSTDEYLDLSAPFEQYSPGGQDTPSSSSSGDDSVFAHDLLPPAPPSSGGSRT
Source text: as §1

[3] = Pharmacokinetic study of compound of Formula I and maleate salt crystalline form 1 (Example 22); assay type: in vivo; conditions: male, rat, plasma, SD rats, oral, 10 mg/kg, 10% DMSO/10% Solutol/80% Water
Source text: Drugs and reagents: 6-(2-chloro-3,5-dimethoxyphenyl)-N-(4-(4-morpholinopiperidin-1-yl)phenyl)-[1,2,4]triazolo[4′, 3′:1,6]pyrido[2,3-d]pyrimidin-2-amine (compound of Formula I), and maleate salt crystalline form 1 of the compound of Formula I used in this study were grounded to fine particles. The material content (purity) was not less than 99.0%.
Experimental animals: SD rats were randomly divided into the compound of Formula I group and maleate salt crystalline form 1 group, each group including three male rats.
Pharmaceutical preparation: each compound was prepared into a clear solution in 10% DMSO/10% Solutol/80% Water solution, the final concentration of each compound was 1 mg/mL.
Administration and sample collection: each suspension was orally administered to fasted SD rats with a dose volume of 10 mL/kg and an administration dose of 10 mg/kg. The blood samples were collected in EDTA-K pre-anticoagulantion tubes before administration (0 h) and at 0.25 h, 0.5 h, 1 h, 2 h, 4 h, 7 h and 24 h after administration. The plasma was separated from the samples by centrifugation at 4000 rpm for 10 minutes at 4° C. The plasma was collected and stored at −80° C. for analysis.
The samples were analyzed by AB4000 API LC/MS combined with HPLC. Under liquid chromatography conditions, a phenomenex C18 2.6 u (50×2.1 mm) column was used as the stationary phase, acetonitrile-water and 0.1% formic acid were used as the mobile phase, and the injection volume was 10 μL.

[4] = Stability assessment (influencing factors, 14 days; XRD, TGA, HPLC); assay type: physicochemical; conditions: for Crystalline form (XRD) / Decrease value of the main ingredient content (HPLC) / Weight loss (TGA): 14th day
Experimental: Samples and preparation of experimental: An appropriate amount of maleate salt crystalline form 1, methanesulfonate salt crystalline form 1 and the compound of Formula I were put in watch glasses, and then spread into a thin layer about 3-5 mm in thickness.
Experimental conditions: Under conventional (25° C., avoid light), high temperature (60° C., avoid light), high temperature and high humidity (40° C./75% RH, open and avoid light), light (25° C., 4500 lux±500 lux, open) and oxidation (40° C., container closure containing urea hydrogen peroxide, open and avoid light) conditions for 14 days.
Test items: Sampled on 0th day and 14th day, the XRD, TGA and HPLC were tested and compared, the test results on the 14th day were show in Table 27.

FGFR2 = FGFR2 (Homo sapiens, UniProt P21802); assay: Kinase assay (mobility shift assay)
Sequence of FGFR2 (P21802 22-821, species assumed): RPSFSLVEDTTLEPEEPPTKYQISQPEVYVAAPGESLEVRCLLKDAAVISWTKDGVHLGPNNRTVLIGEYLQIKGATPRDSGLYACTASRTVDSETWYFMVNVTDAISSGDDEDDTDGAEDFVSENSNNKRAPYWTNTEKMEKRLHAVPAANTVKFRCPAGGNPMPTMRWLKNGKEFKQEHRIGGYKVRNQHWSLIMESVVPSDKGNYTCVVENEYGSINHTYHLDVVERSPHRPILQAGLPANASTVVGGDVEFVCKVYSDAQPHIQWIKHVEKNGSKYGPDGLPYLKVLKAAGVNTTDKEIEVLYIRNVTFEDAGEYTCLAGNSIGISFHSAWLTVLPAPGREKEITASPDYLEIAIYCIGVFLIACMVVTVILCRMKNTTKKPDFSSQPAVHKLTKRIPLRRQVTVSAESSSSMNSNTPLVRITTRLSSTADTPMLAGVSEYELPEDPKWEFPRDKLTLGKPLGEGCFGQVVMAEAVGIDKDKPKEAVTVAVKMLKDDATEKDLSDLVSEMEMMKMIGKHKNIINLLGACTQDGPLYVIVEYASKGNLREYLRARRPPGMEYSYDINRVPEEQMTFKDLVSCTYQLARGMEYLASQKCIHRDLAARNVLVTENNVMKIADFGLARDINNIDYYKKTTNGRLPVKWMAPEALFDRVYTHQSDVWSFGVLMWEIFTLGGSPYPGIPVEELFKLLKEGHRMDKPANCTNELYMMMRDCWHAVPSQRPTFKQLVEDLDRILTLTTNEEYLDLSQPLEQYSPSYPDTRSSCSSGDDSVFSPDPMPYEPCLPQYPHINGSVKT
Source text: as §1

[5] = conventional (25° C., avoid light)
[6] = high temperature (60° C., avoid light)
[7] = high temperature and high humidity (40° C./75% RH)
[8] = oxidation (40° C., urea hydrogen peroxide)

Sequence of FGFR4 (P22455 22-802, species assumed): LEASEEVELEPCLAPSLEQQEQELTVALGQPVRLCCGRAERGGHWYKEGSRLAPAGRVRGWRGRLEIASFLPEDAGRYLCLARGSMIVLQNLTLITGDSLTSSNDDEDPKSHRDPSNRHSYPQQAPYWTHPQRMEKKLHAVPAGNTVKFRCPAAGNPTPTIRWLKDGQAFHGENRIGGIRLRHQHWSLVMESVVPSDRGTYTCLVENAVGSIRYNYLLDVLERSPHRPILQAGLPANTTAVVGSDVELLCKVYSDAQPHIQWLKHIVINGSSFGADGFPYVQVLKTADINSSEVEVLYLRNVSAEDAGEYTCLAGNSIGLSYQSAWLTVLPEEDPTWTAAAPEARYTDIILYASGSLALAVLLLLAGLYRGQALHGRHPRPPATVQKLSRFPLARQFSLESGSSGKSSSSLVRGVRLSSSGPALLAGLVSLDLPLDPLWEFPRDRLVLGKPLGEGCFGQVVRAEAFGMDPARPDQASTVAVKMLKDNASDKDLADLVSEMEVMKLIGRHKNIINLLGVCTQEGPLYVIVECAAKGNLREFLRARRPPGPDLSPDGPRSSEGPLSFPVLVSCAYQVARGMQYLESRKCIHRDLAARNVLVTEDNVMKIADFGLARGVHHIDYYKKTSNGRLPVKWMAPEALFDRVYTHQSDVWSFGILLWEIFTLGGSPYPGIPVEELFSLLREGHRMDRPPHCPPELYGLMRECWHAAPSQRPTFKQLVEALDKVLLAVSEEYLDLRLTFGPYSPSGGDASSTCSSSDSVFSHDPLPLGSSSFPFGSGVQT

COc1cc(OC)c(Cl)c(-c2cc3cnc(Nc4ccc(N5CCC(N6CCOCC6)CC5)cc4)nc3n3cnnc23)c1 [compound of Formula I, 6-(2-chloro-3,5-dimethoxyphenyl)-N-(4-(4-morpholinopiperidin-1-yl)phenyl)-[1,2,4]triazolo[4′,3′:1,6]pyrido[2,3-d]pyrimidin-2-amine]
IC50 (FGFR4): 21 nM | Cmax [1]: 179 ng/mL | AUC(0-t) ([1]; read-out: AUC(0-24)): 786 ng·h/mL | IC50 (NCI-H1581 cells): 2 nM | water uptake [2]: 15.3% | IC50 (SNU-16 cells): < 1 nM | IC50 (FGFR3): 1.2 nM | AUC(0-inf) [3]: 6520 ng·h/mL | Cmax [3]: 443 ng/mL | Tmax [3]: 6 h | half-life [3]: 7.9 h | AUC(0-t) ([3]; read-out: AUC(0-24)): 5870 ng·h/mL | Crystalline form (XRD) [4, 5]: unchanged | Decrease value of the main ingredient content (HPLC) [4, 5]: <0.4% | Weight loss (TGA) [4, 5]: 20%-22% | Crystalline form (XRD) [4, 6]: transformed | Decrease value of the main ingredient content (HPLC) [4, 6]: 13.5% | Weight loss (TGA) [4, 6]: about 18% | Decrease value of the main ingredient content (HPLC) [4, 7]: <0.4% | Weight loss (TGA) [4, 7]: 20%-22% | Crystalline form (XRD) ([4]; high temperature and high humidity (40° C./75% RH, open, avoid light)): decrease | Weight loss (TGA) ([4]; light (25° C., 4500 lux±500 lux)): 20%-22% | Crystalline form (XRD) ([4]; light (25° C., 4500 lux±500 lux, open)): transformed | Decrease value of the main ingredient content (HPLC) [4, 8]: 40.3% | Weight loss (TGA) [4, 8]: about 27% | Crystalline form (XRD) ([4]; oxidation (40° C., urea hydrogen peroxide, open, avoid light)): transformed | stability of crystalline form (XRD, overall statement) ([4]; 14 days, all conditions): relatively low | IC50 (FGFR2): 1.7 nM
